According to PMC7352759, “S(+)-(2E)-N-(2-Hydroxypropyl)-3-Phenylprop-2-Enamide (KM-568): A Novel Cinnamamide Derivative with Anticonvulsant Activity in Animal Models of Seizures and Epilepsy” (International Journal of Molecular Sciences, 2020):
Where two headings read alike, the source gives them in different places.

Experiments:
rats = test: Subcutaneous metrazol seizure threshold test (scMET), rats; format: in vivo; details: for ED50: Rattus norvegicus; for scMET Results (protected/tested animals): i.p.
Protocol: In vivo activity testing was performed at the Epilepsy Branch, National Institute of Neurological Disorders and Stroke, National Institutes of Health (NIH, Bethesda, USA) within the Anticonvulsant Screening Program (ASP) (currently known as the Epilepsy Therapy Screening Program (ETSP)). Pharmacological evaluation was planned and performed in accordance with the Institute of Laboratory Resources polices on the humane care of laboratory animals and approved by the University of Utah’s Institutional Animal Care and Use Committee (IACUC). All testing protocols were previously published as well as they are available on the NIH website. In the tests, albino mice Carworth Farms No.1 (CF-1) (Charles River), C57/Bl6 mice (Charles River), Frings mice (University of Utah) or male rats Sprague–Dawley (Charles River) were used. All animals were housed, fed, and handled in a manner consistent with the recommendations in the National Council Publication, ‘Guide for the Care and Use of Laboratory animals’ [51]. The tested compound was suspended in 0.5% methylcellulose.
The tested compound was administered i.p. or p.o. at certain dose. Then, subcutaneous injection of metrazol (syn. pentetrazol, pentylenepentetrazol) dissolved in 0.9% NaCl at the dose of 85 mg/kg (mice) or 70 mg/kg (rats) was performed to induce seizures. Protection was scored if there was not an observed episode of clonic spasm of at least 5 sec.

mice = test: 6-Hz psychomotor seizure model (32 mA, 44 mA); format: in vivo; details: for ED50: Mus musculus, ip, 95% confidence interval in parentheses; for 6-Hz (32 mA) Results (protected/tested animals) / 6-Hz (44 mA) Results (protected/tested animals): i.p.
Protocol: The test was performed after 0.25 h (for 32 mA current) or 0.5 h (for 44 mA current) of i.p. administration of compound KM-568. The groups of 8 animals were challenged for a single dose of the tested compounds. In addition, 0.2 ms pulses of electric current at 6 Hz and 32 mA or 44 mA were delivered for 3 sec via corneal electrodes. The mouse was released into an observation cage immediately after stimulation. The electric stimulation in a 6-Hz test causes a minimal clonic phase followed by stereotyped, automatic behaviors. The seizure activity can be described as stun, forelimb clonus, twitching of the vibrissae, and Straub tail. The protection was scored if the mouse resumed its normal activity within 10 sec from the stimulation.

CF-1 mice = test: Chemoconvulsant test, bicuculine; format: in vivo; details: 0.25 h
Protocol: Initially, compound KM-568 was administered i.p. at 130.0 mg/kg in two groups of CF-1 mice (n = 8). After 0.25 h, the subcutaneous injections of either bicuculine (2.7 mg/kg) or picrotoxin (2.5 mg/kg) were performed. The, animals were placed in isolation cages and observed for 30 min (in a bicuculine assay) or 45 min (in a picrotoxin assay) for the presence or absence of an episode of a clonic seizure.

[1] = system: Frings audiogenic seizure-susceptible mice; test: Frings audiogenic seizure-susceptible mouse model; format: in vivo; details: 0.25 h; for Results (protected/tested animals): Frings mice, i.p.
Protocol: Frings audiogenic seizure-susceptible mice are genetically susceptible to sound-induced reflex seizures. Mice (18–25 g) were administered i.p. compound KM-568 at the doses in the range of 10.0–17.5 mg/kg. Fifteen minutes later, an individual mouse was placed in a round plexiglass jar (15 cm diameter, 18 cm high) and exposed to a sound stimulus of 110 decibels (11 kHz) delivered for 20 sec.

H9c2 cells = test: MTT cytotoxicity assay, H9c2; format: cell-based, rat
Protocol: Human liver cancer HepG2 cell line (ATCC HB8065) and rat cardiomyoblast cell line H9c2 (ATCC-CRL1446) were purchased in ATCC (American Type Culture Collection, Manassas, VA, USA). The cells were cultured in standard conditions (37 °C, 5% CO2) in EMEM medium (ATCC, Manassas, VA, USA), supplemented with 10% FBS (Gibco, Waltham, MA, USA) and antibiotics (1% streptomycin/penicillin mixture, Sigma–Aldrich, Darmstadt, Germany) or DMEM high glucose (ATCC, Manassas, VA, USA) supplemented with 10% FBS (Gibco, Waltham, MA, USA) and antibiotics (1% streptomycin/penicillin mixture, Sigma–Aldrich, Darmstadt, Germany), respectively.
The MTT colorimetric assay was used to determine the cytotoxic effects of the KM-568 and DOX (Sigma–Aldrich, Darmstadt, Germany). Cells were seeded at a density of 1 × 10^4 in 96-well plates. Following overnight culture, the cells were then treated with KM-568 and DOX in concentration range 0.1–200 µM (hepatocytotoxicity) or 0.1–100 µM (cardiocytotoxicity). Following cell exposure to each drug for 24 h in 96 well plates, 10 µL MTT reagent (Sigma–Aldrich, Darmstadt, Germany) was added to each well; after 4 h of incubation (37 °C, 5% CO2), the medium was aspirated and formazan produced in cells appeared as dark crystals in the bottom of the wells. […] Then, absorbance was measured at 570 nm on a multi-well plate reader (Spectra Max iD3, Molecular Devices, San Jose, CA, USA). […]

C[C@H](O)CNC(=O)/C=C/c1ccccc1 [KM-568, S(+)-(2E)-N-(2-hydroxypropyl)-3-phenylprop-2-enamide]
ED50 (rats; ip, 0.25 h, 95% confidence interval in parentheses): 41.7 mg/kg | ED50 (rats; po, 1.0 h, doses 62.5, 125.0, 250.0 mg/kg): > 250 mg/kg | scMET Results (protected/tested animals) (rats; 30 mg/kg, 0.25 h): 1/8 | scMET Results (protected/tested animals) (rats; 45 mg/kg, 0.25 h): 4/8 | scMET Results (protected/tested animals) (rats; 60 mg/kg, 0.25 h): 8/8 | scMET Results (protected/tested animals) (rats; 95 mg/kg, 0.25 h): 8/8 | ED50 (mice; 32 mA, 0.25 h, read-out: 6-Hz (32 mA) ED50): 71.5 mg/kg | ED50 (mice; 44 mA, 0.5 h, read-out: 6-Hz (44 mA) ED50): 114 mg/kg | 6-Hz (32 mA) Results (protected/tested animals) (mice; 50 mg/kg, 0.25 h): 1/8 | 6-Hz (44 mA) Results (protected/tested animals) (mice; 50 mg/kg, 0.5 h): 0/8 | 6-Hz (32 mA) Results (protected/tested animals) (mice; 75 mg/kg, 0.25 h): 3/8 | 6-Hz (32 mA) Results (protected/tested animals) (mice; 87 mg/kg, 0.25 h): 7/8 | 6-Hz (44 mA) Results (protected/tested animals) (mice; 100 mg/kg, 0.5 h): 3/8 | 6-Hz (32 mA) Results (protected/tested animals) (mice; 110 mg/kg, 0.25 h): 8/8 | 6-Hz (44 mA) Results (protected/tested animals) (mice; 150 mg/kg, 0.5 h): 6/8 | 6-Hz (44 mA) Results (protected/tested animals) (mice; 200 mg/kg, 0.5 h): 8/8 | ED50 (CF-1 mice; Mus musculus, ip): > 130 mg/kg | Bicuculine Results (protected/tested animals) (CF-1 mice; i.p., 130 mg/kg): 0/8 | Results (protected/tested animals) ([1]; 10.0 mg/kg): 1/8 | Results (protected/tested animals) ([1]; 12.5 mg/kg): 3/8 | Results (protected/tested animals) ([1]; 15.0 mg/kg): 6/8 | Results (protected/tested animals) ([1]; 17.5 mg/kg): 7/8 | ED50 ([1]; Mus musculus, ip): 13.2 mg/kg | percent of living cells (H9c2 cells; H9c2, 24 h incubation with 100 µM): ~100% | cytotoxic effect, MTT assay (H9c2 cells; H9c2, up to 100 µM, 24 h): no cytotoxic effect
